Data reported in ChEMBL document CHEMBL1177708, “Design, synthesis, and biological evaluation of a novel class of gamma-secretase modulators with PPARgamma activity” (J Med Chem, 2010).
pEC50, pIC50: −log10 of the molar value. The source made the active and inactive calls. No cut-off for these calls is given here.

Assays:
[1] = molecular target: T1, Peroxisome proliferator-activated receptor delta (Homo sapiens) (UniProt Q03181); assay: Agonist activity at human PPARdelta-LBD expressed in COS7 cells co-transfected with Gal4 at 10 uM by luciferase based transactivation assay; type: functional, cell-based; conditions: COS-7
T1 sequence (whole entry): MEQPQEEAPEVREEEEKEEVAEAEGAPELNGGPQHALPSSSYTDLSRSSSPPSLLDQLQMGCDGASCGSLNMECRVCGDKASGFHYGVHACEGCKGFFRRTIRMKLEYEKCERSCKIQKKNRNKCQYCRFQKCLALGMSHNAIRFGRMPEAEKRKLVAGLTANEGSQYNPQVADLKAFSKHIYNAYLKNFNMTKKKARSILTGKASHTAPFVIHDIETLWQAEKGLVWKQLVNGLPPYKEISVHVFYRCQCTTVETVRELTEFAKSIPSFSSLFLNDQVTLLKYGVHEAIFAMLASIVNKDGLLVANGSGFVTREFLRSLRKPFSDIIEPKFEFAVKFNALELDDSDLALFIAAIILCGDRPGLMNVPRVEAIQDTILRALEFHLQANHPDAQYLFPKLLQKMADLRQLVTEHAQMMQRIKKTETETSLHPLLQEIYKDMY

[2] = molecular target: T2, Prostaglandin G/H synthase 2 (Homo sapiens) (UniProt P35354); assay: Inhibition of human recombinant COX2 assessed as residual activity at 10 uM after 5 mins
T2 sequence (whole entry): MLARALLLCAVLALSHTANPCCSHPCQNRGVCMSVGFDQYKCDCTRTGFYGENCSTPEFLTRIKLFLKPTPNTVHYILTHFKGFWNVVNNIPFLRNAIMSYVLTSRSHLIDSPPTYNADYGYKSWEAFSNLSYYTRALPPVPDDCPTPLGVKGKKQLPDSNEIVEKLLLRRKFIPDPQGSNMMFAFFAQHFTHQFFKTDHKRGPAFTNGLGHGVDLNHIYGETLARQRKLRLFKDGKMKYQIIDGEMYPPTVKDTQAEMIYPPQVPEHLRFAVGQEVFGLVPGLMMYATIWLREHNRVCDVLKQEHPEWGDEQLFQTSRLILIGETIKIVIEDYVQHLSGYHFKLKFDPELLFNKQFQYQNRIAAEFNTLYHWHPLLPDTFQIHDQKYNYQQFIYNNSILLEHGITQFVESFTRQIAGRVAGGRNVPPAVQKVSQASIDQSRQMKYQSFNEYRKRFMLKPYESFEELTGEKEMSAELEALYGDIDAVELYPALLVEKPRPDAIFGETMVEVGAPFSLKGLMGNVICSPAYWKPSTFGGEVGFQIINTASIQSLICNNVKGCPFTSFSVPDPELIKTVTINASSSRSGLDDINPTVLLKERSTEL

[3] = molecular target: T3, Peroxisome proliferator-activated receptor alpha (Homo sapiens) (UniProt Q07869); assay: Agonist activity at human PPARalpha-LBD expressed in COS7 cells co-transfected with Gal4 at 10 uM by luciferase based transactivation assay; type: functional, cell-based; conditions: COS-7
T3 sequence (whole entry): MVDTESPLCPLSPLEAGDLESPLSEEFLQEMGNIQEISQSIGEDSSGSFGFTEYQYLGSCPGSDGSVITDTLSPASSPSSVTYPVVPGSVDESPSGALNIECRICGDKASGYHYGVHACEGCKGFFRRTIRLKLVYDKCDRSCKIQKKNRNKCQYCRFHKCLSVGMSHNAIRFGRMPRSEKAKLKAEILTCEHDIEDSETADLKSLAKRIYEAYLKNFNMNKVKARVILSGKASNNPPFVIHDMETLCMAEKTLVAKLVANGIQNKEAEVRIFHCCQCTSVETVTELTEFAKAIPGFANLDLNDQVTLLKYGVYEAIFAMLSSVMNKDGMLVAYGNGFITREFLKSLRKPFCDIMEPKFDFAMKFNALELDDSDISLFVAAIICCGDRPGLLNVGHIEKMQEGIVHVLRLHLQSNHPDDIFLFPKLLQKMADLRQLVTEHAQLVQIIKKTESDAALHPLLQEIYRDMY

[4] = molecular target: T4, Prostaglandin G/H synthase 1 (Ovis aries) (UniProt P05979); assay: Inhibition of ovine COX1 assessed as residual activity at 10 uM after 5 mins
T4 sequence (whole entry): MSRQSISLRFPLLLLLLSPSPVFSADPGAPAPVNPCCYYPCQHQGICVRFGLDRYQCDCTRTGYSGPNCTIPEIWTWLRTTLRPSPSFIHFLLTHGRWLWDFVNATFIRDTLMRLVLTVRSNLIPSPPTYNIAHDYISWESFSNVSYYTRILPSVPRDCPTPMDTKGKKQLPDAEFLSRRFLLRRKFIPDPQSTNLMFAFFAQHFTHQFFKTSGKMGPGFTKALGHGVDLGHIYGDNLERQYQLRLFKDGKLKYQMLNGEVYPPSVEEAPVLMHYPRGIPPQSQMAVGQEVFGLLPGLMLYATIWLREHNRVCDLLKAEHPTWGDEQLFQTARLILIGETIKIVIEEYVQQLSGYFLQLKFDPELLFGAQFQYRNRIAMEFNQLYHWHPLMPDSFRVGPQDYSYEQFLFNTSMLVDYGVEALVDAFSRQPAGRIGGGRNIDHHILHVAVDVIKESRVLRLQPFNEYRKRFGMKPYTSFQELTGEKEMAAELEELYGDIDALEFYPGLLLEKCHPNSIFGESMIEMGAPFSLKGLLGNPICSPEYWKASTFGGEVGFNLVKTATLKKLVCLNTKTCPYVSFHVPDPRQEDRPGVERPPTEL

[5] = molecular target: T5, Peroxisome proliferator-activated receptor gamma (Homo sapiens, UniProt P37231); assay: Agonist activity at human PPARgamma-LBD expressed in COS7 cells co-transfected with Gal4 by luciferase based transactivation assay; type: functional, cell-based, COS-7
T5 sequence (P37231 whole entry): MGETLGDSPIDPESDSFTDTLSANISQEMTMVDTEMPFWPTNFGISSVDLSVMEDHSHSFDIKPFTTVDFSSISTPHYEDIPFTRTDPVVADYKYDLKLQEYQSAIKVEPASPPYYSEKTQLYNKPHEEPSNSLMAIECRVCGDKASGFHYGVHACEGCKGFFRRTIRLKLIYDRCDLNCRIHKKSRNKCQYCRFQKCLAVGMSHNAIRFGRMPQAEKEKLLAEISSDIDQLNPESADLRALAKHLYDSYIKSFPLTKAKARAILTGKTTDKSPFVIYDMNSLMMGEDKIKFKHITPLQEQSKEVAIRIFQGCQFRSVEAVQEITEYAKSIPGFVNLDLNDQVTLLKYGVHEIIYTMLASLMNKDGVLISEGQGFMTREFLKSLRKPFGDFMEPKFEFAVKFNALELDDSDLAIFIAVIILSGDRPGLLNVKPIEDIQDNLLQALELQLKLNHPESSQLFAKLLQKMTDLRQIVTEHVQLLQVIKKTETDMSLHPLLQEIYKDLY

[6] = Modulation of gamma-secretase-mediated cleavage of human APP expressed in CHO cells with human presenilin-1 assessed as activation of amyloid beta38 production after 24 hrs by ELISA; type: cell-based
cells = conditions: CHO, 24 h
Description: Modulation of gamma-secretase-mediated cleavage of human APP expressed in CHO cells with human presenilin-1 assessed as inhibition of amyloid beta42 production after 24 hrs by ELISA

[7] = molecular target: T6, Peroxisome proliferator-activated receptor gamma (Homo sapiens) (UniProt P37231); assay: Agonist activity at human PPARgamma-LBD expressed in COS7 cells co-transfected with Gal4 by luciferase based transactivation assay relative to pioglitazone; type: functional, cell-based; conditions: COS-7
T6 sequence (whole entry): T5 sequence (P37231 whole entry)

CHO [8] = assay: Cytotoxicity against CHO cells at 60 uM after 24 hrs by Alamar blue assay; type: cell-based, Cricetulus griseus; conditions: chinese hamster
[9] = molecular target: T7, Prostaglandin G/H synthase 1 (Ovis aries, UniProt P05979)
T7 sequence (P05979 whole entry): T4 sequence (whole entry)
Description: Inhibition of ovine COX1 after 5 mins

CHO [10] = assay: Modulation of gamma-secretase-mediated notch signaling expressed in CHO cells transfected with Gal4-DNA-binding/VP16 transactivation domain assessed as reduction of reporter activity at 5 to 40 uM after 24 hrs; type: cell-based

| Activity [1] | Activity [2] | Activity [3] | Activity [4] | pEC50 [5] | pEC50 [6] | pIC50 (cells) | Emax [7] | pIC50 [9] | Compound | Activity (CHO [8]) | Activity (CHO [10]) |
| --- | --- | --- | --- | --- | --- | --- | --- | --- | --- | --- | --- |
| inactive | 93.3% | inactive | 57.2% | 5.12 | 5.19 | 4.89 | 63% | – | CCCCC(Sc1nc(OCCc2ccc(C)cc2)cc(OCCc2ccc(C)cc2)n1)C(=O)O (configuration not stated) | Non-toxic | – |
| inactive | 51.9% | inactive | 78.8% | 5.05 | 4.79 | 4.51 | 71% | – | CCCCC(Sc1nc(OCCCc2ccccc2)cc(OCCCc2ccccc2)n1)C(=O)O (configuration not stated) | Non-toxic | – |
| inactive | 80.5% | inactive | 72.4% | 4.96 | 4.96 | 4.55 | 69% | – | CCCCC(Sc1nc(OCCC(C)C)cc(OCCC(C)C)n1)C(=O)O (configuration not stated) | Non-toxic | – |
| inactive | 56.9% | inactive | 84.6% | 5.21 | 4.51 | 4.38 | 57% | – | CCC(Sc1nc(OCCc2ccccc2)cc(OCCc2ccccc2)n1)C(=O)O (configuration not stated) | Non-toxic | – |
| inactive | 63.8% | inactive | 61.8% | 5.06 | 4.62 | 4.52 | 59% | – | CCCCCCC(Sc1nc(OCCc2ccccc2)cc(OCCc2ccccc2)n1)C(=O)O (configuration not stated) | Non-toxic | – |
| inactive | 90.9% | inactive | 64.2% | 5.08 | 4.95 | 4.64 | 61% | 4.73 | CCCCC(Sc1nc(OCCc2ccccc2)cc(OCCc2ccccc2)n1)C(=O)O (configuration not stated) | Non-toxic | – |
| inactive | 75.8% | inactive | 73% | 4.99 | 5.26 | 5.07 | 115% | – | CCCCC(Sc1nc(OCCc2ccc(OC(F)(F)F)cc2)cc(OCCc2ccc(OC(F)(F)F)cc2)n1)C(=O)O (configuration not stated) | Non-toxic | – |
| – | – | – | – | – | – | 4.60 | – | – | COc1ccc2c(c1)c(CC(=O)O)c(C)n2C(=O)c1ccc(Cl)cc1 [INDOMETHACIN] | – | – |
| inactive | 53.9% | inactive | 78.8% | 5.00 | 4.79 | 4.64 | 55% | – | CCCCC(Sc1nc(OCCCCc2ccccc2)cc(OCCCCc2ccccc2)n1)C(=O)O (configuration not stated) | Non-toxic | – |
| inactive | 84.7% | inactive | 68.2% | – | 5.05 | 4.76 | 127% | – | CCCCC(Sc1nc(OCCC2CCCC2)cc(OCCC2CCCC2)n1)C(=O)O (configuration not stated) | Non-toxic | – |
| inactive | 82.6% | inactive | 88.8% | 5.15 | – | < 4.40 | 65% | – | CCCCC(Sc1nc(OCCc2ccc(C#N)cc2)cc(OCCc2ccc(C#N)cc2)n1)C(=O)O (configuration not stated) | Non-toxic | – |
| inactive | 92.8% | inactive | 83.5% | 4.98 | 4.87 | 4.49 | 62% | – | CCCC[C@H](Sc1nc(OCCc2ccccc2)cc(OCCc2ccccc2)n1)C(=O)O | Non-toxic | – |
| inactive | 49.5% | inactive | 52.7% | 5.18 | 5.34 | 5.29 | 71% | 4.87 | CCCCC(Sc1nc(OCCC2CCCCC2)cc(OCCC2CCCCC2)n1)C(=O)O (configuration not stated) | Non-toxic | inactive |
| – | – | – | – | – | – | 3.52 | – | 4.89 | CC(C(=O)O)c1ccc2c(c1)[nH]c1ccc(Cl)cc12 (configuration not stated) [CARPROFEN] | – | – |
| – | – | – | – | – | – | 4.47 | – | 7.30 | CSc1ccc(/C=C2/C(C)=C(CC(=O)O)c3cc(F)ccc32)cc1 [SULINDAC SULFIDE] | – | – |
| inactive | 87.9% | inactive | 97.7% | 5.37 | 4.62 | < 4.40 | 79% | – | CCCCC(Sc1nc(OCCC2CC2)cc(OCCC2CC2)n1)C(=O)O (configuration not stated) | Non-toxic | – |
| inactive | 91.7% | inactive | 91.8% | 5.43 | < 4.40 | < 4.40 | 111% | – | O=C(O)CSc1nc(OCCc2ccccc2)cc(OCCc2ccccc2)n1 | Non-toxic | – |
